Assay results reported in paper PMC6009876, “Introduction of pyrrolidineoxy or piperidineamino group at the 4-position of quinazoline leading to novel quinazoline-based phosphoinositide 3-kinase delta (PI3Kδ) inhibitors” (Journal of Enzyme Inhibition and Medicinal Chemistry, 2018).
Read-outs that look alike come from different tables or passages of the source. One block for each molecule: values may come before it.

Experiments:
PI3Kδ [1] = target: T1, PI3Kδ (Homo sapiens, UniProt O00329); test: PI3Kδ inhibitory activity; type: biochemical; details: mean of at least two experiments; for inhibition at 0.1 µM: at the concentration of 100 nM
T1 sequence (O00329 whole entry): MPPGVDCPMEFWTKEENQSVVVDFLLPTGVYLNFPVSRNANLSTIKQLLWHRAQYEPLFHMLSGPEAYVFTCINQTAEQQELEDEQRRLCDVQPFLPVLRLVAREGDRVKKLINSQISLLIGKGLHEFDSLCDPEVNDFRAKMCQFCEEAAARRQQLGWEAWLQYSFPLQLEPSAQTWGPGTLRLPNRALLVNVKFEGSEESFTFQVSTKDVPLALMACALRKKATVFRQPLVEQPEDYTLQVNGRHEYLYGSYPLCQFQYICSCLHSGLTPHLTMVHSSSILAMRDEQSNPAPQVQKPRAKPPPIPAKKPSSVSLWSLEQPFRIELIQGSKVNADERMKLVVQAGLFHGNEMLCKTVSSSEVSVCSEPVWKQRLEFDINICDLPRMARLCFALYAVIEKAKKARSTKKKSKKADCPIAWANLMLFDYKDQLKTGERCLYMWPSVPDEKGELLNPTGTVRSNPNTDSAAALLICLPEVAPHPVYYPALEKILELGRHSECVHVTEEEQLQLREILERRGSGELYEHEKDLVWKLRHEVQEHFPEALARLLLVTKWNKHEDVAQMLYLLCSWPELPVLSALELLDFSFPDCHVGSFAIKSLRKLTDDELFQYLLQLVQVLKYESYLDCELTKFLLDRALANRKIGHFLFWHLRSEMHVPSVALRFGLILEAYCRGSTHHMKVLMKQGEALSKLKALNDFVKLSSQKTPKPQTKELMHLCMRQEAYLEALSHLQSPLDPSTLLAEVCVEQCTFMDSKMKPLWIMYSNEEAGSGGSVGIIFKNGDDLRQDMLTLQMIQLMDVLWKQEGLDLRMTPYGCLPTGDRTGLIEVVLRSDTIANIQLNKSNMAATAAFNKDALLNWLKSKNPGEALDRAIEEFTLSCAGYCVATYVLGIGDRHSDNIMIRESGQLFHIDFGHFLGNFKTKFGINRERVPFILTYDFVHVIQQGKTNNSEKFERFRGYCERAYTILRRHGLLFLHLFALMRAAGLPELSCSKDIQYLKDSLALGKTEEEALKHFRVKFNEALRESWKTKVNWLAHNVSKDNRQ
T1 sequence (P27986 whole entry partner): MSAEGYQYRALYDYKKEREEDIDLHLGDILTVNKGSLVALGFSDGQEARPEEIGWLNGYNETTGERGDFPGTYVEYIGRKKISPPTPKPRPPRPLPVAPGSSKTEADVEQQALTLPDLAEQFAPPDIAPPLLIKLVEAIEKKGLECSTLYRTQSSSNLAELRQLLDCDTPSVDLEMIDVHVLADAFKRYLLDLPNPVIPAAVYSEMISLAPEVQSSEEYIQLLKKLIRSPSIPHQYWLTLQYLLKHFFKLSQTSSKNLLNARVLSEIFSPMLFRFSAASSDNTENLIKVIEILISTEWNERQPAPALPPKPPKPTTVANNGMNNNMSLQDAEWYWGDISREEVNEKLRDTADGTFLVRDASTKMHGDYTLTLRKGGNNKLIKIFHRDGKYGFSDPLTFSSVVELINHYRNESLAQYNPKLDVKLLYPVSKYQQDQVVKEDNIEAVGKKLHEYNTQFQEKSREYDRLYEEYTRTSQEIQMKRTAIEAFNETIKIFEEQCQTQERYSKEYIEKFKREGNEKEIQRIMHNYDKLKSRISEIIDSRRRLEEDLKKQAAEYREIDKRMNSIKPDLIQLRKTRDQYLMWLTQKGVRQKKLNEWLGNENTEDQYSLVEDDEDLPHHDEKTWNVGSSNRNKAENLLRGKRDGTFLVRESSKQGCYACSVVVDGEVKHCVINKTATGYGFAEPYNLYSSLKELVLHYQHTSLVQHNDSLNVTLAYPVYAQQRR

Ramos = test: Anti-proliferative activity, MTT reduction method; type: cell-based; details: Homo sapiens, mean of at least two experiments
Raji = test: Anti-proliferative activity, MTT reduction method; type: cell-based; details: Homo sapiens, mean of at least two experiments
RPMI-8226 = test: Anti-proliferative activity, MTT reduction method; type: cell-based; details: Homo sapiens, mean of at least two experiments
SU-DHL-6 = test: Anti-proliferative activity, CCK-8 method; type: cell-based; details: Homo sapiens, mean of at least two experiments
PI3Kδ [2] = target: T1, PI3Kδ; details: cited from earlier work
PI3Kα = PI3Kα (Homo sapiens, UniProt P42336); test: PI3K isoform selectivity, p110α; type: biochemical; details: for IC50: mean of at least two experiments
Chain of PI3Kα (P42336 whole entry, species assumed, canonical isoform): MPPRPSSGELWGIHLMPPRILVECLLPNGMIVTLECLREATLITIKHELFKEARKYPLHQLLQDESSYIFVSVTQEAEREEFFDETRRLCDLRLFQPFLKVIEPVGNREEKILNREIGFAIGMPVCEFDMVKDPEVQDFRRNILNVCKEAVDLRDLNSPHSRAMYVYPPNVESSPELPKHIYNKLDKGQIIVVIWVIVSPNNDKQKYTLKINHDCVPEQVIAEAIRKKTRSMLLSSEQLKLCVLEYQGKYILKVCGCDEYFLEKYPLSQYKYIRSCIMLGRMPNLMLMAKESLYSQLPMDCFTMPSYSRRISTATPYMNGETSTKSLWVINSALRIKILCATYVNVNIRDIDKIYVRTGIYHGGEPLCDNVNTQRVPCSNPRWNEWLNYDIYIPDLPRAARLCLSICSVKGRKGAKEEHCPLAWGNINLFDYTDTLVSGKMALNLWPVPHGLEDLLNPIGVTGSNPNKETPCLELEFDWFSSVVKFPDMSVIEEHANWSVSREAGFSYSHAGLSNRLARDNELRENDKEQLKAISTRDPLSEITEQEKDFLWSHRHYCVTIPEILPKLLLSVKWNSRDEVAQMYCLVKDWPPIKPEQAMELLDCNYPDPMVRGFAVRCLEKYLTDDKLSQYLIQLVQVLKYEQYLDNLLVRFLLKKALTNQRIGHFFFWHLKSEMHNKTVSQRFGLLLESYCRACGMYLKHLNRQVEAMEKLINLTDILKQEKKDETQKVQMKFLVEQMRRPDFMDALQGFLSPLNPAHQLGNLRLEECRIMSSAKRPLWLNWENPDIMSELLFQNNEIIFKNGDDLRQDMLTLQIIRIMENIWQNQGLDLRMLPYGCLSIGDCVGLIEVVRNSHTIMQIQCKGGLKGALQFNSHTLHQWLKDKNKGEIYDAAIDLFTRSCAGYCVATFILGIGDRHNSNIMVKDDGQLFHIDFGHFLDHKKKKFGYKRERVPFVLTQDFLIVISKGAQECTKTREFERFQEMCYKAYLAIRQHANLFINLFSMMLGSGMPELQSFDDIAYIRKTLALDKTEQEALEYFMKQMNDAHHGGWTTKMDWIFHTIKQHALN
Chain of PI3Kα (P27986 whole entry partner, species assumed, canonical isoform): as the sequence (P27986 whole entry partner) above

PI3Kβ = PI3Kβ (Homo sapiens, UniProt P42338); test: PI3K isoform selectivity, p110β; type: biochemical; details: for IC50: mean of at least two experiments
Chain of PI3Kβ (P42338 whole entry, species assumed, canonical isoform): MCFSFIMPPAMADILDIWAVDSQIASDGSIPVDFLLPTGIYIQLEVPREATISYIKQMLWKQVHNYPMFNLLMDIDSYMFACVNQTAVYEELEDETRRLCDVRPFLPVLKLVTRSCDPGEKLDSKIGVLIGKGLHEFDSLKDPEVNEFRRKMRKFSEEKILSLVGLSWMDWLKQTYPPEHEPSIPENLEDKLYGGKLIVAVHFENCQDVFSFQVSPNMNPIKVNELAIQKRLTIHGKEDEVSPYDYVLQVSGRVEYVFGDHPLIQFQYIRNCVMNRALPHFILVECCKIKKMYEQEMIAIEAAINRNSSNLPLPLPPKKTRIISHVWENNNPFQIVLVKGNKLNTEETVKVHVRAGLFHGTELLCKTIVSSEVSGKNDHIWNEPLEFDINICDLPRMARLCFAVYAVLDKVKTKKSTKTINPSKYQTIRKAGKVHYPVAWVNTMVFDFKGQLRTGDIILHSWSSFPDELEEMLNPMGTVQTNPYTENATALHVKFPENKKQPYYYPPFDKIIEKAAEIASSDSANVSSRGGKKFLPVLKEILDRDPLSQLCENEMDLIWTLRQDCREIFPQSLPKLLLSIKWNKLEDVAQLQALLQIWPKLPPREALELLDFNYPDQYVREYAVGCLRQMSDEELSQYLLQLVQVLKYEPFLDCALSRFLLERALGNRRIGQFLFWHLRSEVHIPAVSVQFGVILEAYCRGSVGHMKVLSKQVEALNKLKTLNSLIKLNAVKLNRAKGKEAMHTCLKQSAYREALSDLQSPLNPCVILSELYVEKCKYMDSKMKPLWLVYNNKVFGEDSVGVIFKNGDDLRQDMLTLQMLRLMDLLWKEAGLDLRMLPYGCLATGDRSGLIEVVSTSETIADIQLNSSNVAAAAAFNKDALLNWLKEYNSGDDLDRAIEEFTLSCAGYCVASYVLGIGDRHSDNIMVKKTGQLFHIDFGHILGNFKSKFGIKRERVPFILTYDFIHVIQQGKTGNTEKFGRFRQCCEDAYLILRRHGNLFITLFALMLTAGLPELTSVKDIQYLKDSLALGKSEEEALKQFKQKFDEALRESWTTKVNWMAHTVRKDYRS
Chain of PI3Kβ (P27986 whole entry partner, species assumed, canonical isoform): as the sequence (P27986 whole entry partner) above

PI3Kγ = PI3Kγ (Homo sapiens, UniProt P48736); test: PI3K isoform selectivity, p110γ; type: biochemical; details: for IC50: mean of at least two experiments
Chain of PI3Kγ (P48736 whole entry, species assumed, canonical isoform): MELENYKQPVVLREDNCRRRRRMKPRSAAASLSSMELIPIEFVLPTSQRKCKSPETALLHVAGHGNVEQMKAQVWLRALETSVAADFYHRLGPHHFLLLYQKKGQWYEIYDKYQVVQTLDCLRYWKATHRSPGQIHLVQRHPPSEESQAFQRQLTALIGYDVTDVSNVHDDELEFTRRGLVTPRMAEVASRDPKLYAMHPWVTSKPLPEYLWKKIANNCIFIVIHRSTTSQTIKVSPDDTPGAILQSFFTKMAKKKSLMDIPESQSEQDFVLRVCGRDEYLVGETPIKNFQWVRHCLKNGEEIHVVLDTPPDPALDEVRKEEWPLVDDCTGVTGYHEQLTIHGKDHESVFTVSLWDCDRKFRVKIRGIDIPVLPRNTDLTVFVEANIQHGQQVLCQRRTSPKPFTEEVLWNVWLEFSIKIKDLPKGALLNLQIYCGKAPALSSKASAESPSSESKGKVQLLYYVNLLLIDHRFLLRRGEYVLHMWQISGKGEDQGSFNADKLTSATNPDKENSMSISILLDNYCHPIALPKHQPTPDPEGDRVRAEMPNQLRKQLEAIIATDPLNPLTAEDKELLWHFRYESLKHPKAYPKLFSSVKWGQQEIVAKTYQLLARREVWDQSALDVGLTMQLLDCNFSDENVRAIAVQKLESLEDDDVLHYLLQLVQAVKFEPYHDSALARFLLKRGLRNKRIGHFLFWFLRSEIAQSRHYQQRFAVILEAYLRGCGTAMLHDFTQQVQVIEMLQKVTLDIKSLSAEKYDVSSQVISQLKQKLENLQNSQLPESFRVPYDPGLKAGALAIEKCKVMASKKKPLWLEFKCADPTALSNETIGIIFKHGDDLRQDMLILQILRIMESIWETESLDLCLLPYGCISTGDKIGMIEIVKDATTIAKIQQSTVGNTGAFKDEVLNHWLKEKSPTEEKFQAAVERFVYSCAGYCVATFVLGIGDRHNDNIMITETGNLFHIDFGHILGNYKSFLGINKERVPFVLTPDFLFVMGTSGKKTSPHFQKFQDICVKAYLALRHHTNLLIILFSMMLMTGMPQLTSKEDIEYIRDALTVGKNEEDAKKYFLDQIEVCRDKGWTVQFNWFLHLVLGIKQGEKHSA

[3] = Table 3 isoform selectivity, read-out: p110δ IC50

Compound: CC[C@H](Nc1ncnc2[nH]cnc12)c1nc2cccc(F)c2c(=O)n1-c1ccccc1 [Compound 1, idelalisib, reference compound]
- inhibition at 0.1 µM (PI3Kδ [1]): 96%
- IC50 (Ramos): > 10000 nM
- IC50 (Raji): 9950 nM
- IC50 (RPMI-8226): 5490 nM
- IC50 (SU-DHL-6): 650 nM

Compound: C[C@H](Nc1nc(N)nc(N)c1C#N)c1nc2cccc(F)c2c(=O)n1-c1cc(F)cc(F)c1 [Compound 3]
- IC50 (PI3Kδ [2]; idelalisib-derived analogues): 2.2 nM

Compound: COc1ncc(-c2ccc3ncnc(Nc4cccc(C(=O)N5CCOCC5)c4)c3c2)cc1C#N [Compound 8]
- IC50 (PI3Kδ [2]; 4-anilinequinazoline): 9.3 nM

Compound: COc1ccc(-c2ccc3ncnc(O[C@H]4CCN(C(=O)OC(C)(C)C)C4)c3c2)cn1 [Compound 12a]
- inhibition at 0.1 µM (PI3Kδ [1]): 79%

Compound: COc1ccc(-c2ccc3ncnc(O[C@H]4CCN(C(=O)C5CC5)C4)c3c2)cn1 [Compound 12b]
- inhibition at 0.1 µM (PI3Kδ [1]): 90%
- IC50 (PI3Kδ [1]; read-out: PI3Kδ IC50): 9.3 nM

Compound: COc1ccc(-c2ccc3ncnc(O[C@H]4CCN(C(=O)C5CCC5)C4)c3c2)cn1 [Compound 12c]
- inhibition at 0.1 µM (PI3Kδ [1]): 96%
- IC50 (PI3Kδ [1]; read-out: PI3Kδ IC50): 6.1 nM

Compound: COc1ccc(-c2ccc3ncnc(O[C@H]4CCN(C(=O)C5CCOCC5)C4)c3c2)cn1 [Compound 12d]
- IC50 (PI3Kδ [1]; [3]): 4.9 nM
- inhibition at 0.1 µM (PI3Kδ [1]): 98%
- IC50 (PI3Kδ [1]; read-out: PI3Kδ IC50): 4.9 nM
- PI3Kδ selectivity over PI3Kα (PI3Kα): 11 fold
- IC50 (PI3Kα): 50.4 nM
- PI3Kδ selectivity over PI3Kβ (PI3Kβ): 131 fold
- IC50 (PI3Kβ): 592 nM
- PI3Kδ selectivity over PI3Kγ (PI3Kγ): 103 fold
- IC50 (PI3Kγ): 468 nM
- IC50 (Ramos): 1340 nM
- IC50 (Raji): 9810 nM
- IC50 (RPMI-8226): 440 nM
- IC50 (SU-DHL-6): 3230 nM

Compound: COc1ccc(-c2ccc3ncnc(O[C@H]4CCN(C(=O)C(C)(C)C)C4)c3c2)cn1 [Compound 12e]
- inhibition at 0.1 µM (PI3Kδ [1]): 53%

Compound: O=C(CCCCCCC(=O)Nc1ccccc1)NO [SAHA, vorinostat, reference compound]
- IC50 (RPMI-8226): 660 nM

Other lines, results leading:

- inhibition at 0.1 µM (PI3Kδ [1]): 51%
Compound: COc1ccc(-c2ccc3ncnc(N[C@H]4CCCN(C(=O)OC(C)(C)C)C4)c3c2)cn1 [Compound 14a]

- IC50 (PI3Kδ [1]; [3]): 3 nM
- inhibition at 0.1 µM (PI3Kδ [1]): 94%
- IC50 (PI3Kδ [1]; read-out: PI3Kδ IC50): 3 nM
- PI3Kδ selectivity over PI3Kα (PI3Kα): 12 fold
- IC50 (PI3Kα): 36.6 nM
- PI3Kδ selectivity over PI3Kβ (PI3Kβ): 105 fold
- IC50 (PI3Kβ): 317 nM
- PI3Kδ selectivity over PI3Kγ (PI3Kγ): 34 fold
- IC50 (PI3Kγ): 104 nM
- IC50 (Ramos): 1340 nM
- IC50 (Raji): 810 nM
- IC50 (RPMI-8226): 8660 nM
- IC50 (SU-DHL-6): 1040 nM
Compound: COc1ccc(-c2ccc3ncnc(N[C@H]4CCCN(C(=O)C5CC5)C4)c3c2)cn1 [Compound 14b]

- IC50 (PI3Kδ [1]; [3]): 3.9 nM
- inhibition at 0.1 µM (PI3Kδ [1]): 91%
- IC50 (PI3Kδ [1]; read-out: PI3Kδ IC50): 3.9 nM
- PI3Kδ selectivity over PI3Kα (PI3Kα): 15 fold
- IC50 (PI3Kα): 58.9 nM
- PI3Kδ selectivity over PI3Kβ (PI3Kβ): 96 fold
- IC50 (PI3Kβ): 376 nM
- PI3Kδ selectivity over PI3Kγ (PI3Kγ): 31 fold
- IC50 (PI3Kγ): 121 nM
- IC50 (SU-DHL-6): 1490 nM
Compound: COc1ccc(-c2ccc3ncnc(N[C@H]4CCCN(C(=O)C5CCC5)C4)c3c2)cn1 [Compound 14c]

- inhibition at 0.1 µM (PI3Kδ [1]): 91%
- IC50 (PI3Kδ [1]; read-out: PI3Kδ IC50): 8.7 nM
Compound: COc1ccc(-c2ccc3ncnc(N[C@H]4CCCN(C(=O)C5CCCC5)C4)c3c2)cn1 [Compound 14d]

- inhibition at 0.1 µM (PI3Kδ [1]): 88%
- IC50 (PI3Kδ [1]; read-out: PI3Kδ IC50): 5.2 nM
Compound: COc1ccc(-c2ccc3ncnc(N[C@H]4CCCN(C(=O)C5CCOCC5)C4)c3c2)cn1 [Compound 14e]

- inhibition at 0.1 µM (PI3Kδ [1]): 54%
Compound: COc1ccc(-c2ccc3ncnc(N[C@H]4CCCN(C(=O)C(C)(C)C)C4)c3c2)cn1 [Compound 14f]

- inhibition at 0.1 µM (PI3Kδ [1]): 72%
Compound: COc1ccc(-c2ccc3ncnc(NC4CCN(C(=O)OC(C)(C)C)CC4)c3c2)cn1 [Compound 16a]

- inhibition at 0.1 µM (PI3Kδ [1]): 70%
Compound: COc1ccc(-c2ccc3ncnc(NC4CCN(C(=O)C5CC5)CC4)c3c2)cn1 [Compound 16b]

- inhibition at 0.1 µM (PI3Kδ [1]): 48%
Compound: COc1ccc(-c2ccc3ncnc(NC4CCN(C(=O)C5CCOCC5)CC4)c3c2)cn1 [Compound 16c]
